Laboratory results: patent publication US20260297070A1, “CYCLIC [COMPOUND LEFT OUT] WRN INHIBITORS” (Nimbus Wadjet, Inc., priority 2023, published 2026)

Biological target: T1, human Werner helicase (WRN-BV08, Uniprot Q14191, amino acids 517-1235 with L1074F point mutation) (Homo sapiens, UniProt Q14191, L1074F)
T1 construct: Uniprot Q14191, amino acids 517-1235 with L1074F point mutation; TEV-cleavable 8×His (C, cleaved yes); made in house; host or cells: Sf9 insect cells (baculovirus)
Assay: WRN (BV08) ADP-Glo Assay
Format: biochemical
Conditions: 0.15 nM WRN, 5 μM ATP, 0.1 nM DNA duplex, 15 min preincubation, 60 min at 25° C., pH 7.5, 1% DMSO; read-out: ADP-Glo_hWRN_IC50
In short: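 0.15 nM WRN (aa 517-1235, L1074F, Sf9-expressed, tag cleaved) preincubated 15 min at 25 °C with compound, then 5 μM ATP and 0.1 nM DNA duplex added for 60 min. Buffer: 20 mM Bicine pH 7.5, 1 mM MgCl2, 10 mM KCl, 1 mM TCEP; 1% DMSO. ADP-Glo luminescence; IC50 by 4-parameter fit.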

T1 sequence (Q14191 with tags, fused parts or gaps L1074F limits assumed): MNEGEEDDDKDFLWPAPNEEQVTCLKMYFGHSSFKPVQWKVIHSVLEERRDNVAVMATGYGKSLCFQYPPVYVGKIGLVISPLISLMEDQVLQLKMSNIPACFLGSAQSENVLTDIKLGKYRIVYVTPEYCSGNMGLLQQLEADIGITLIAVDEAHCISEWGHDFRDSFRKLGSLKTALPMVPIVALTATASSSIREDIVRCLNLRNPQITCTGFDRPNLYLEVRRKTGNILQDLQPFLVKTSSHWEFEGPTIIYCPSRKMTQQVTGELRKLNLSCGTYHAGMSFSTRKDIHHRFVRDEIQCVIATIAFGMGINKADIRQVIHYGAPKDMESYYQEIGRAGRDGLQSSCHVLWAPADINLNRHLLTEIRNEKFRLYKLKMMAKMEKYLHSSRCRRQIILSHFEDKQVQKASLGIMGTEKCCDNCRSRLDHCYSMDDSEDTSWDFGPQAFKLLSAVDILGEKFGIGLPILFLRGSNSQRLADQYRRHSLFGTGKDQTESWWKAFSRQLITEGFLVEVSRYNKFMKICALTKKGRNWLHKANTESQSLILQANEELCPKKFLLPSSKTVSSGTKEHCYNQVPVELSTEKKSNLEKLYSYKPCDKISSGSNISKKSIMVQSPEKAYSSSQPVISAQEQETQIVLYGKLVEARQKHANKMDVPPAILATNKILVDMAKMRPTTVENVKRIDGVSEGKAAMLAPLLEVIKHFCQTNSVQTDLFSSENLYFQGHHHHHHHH

IC50 [µM]	Compound
> 50	O=C(Cc1nc(C(F)(F)F)cs1)N(Cc1ccncc1)C1C=CS(=O)(=O)C1 (stereo not drawn) [I-371, N-(1,1-dioxo-2,3-dihydro-1lambda6-thiophen-3-yl)-N-[(pyridin-4-yl)methyl]-2-[4-(trifluoromethyl)-1,3-thiazol-2-yl]acetamide]
> 50	COc1cc(CN(C(=O)C(C(=O)N(C)C)c2ccc(-c3ccc(F)cc3)cc2F)C2C=CS(=O)(=O)C2)ccn1 (single isomer, unassigned) [I-312, (2R**)-2-{3,4′-difluoro-[1,1′-biphenyl]-4-yl}-N-[(3R*)-1,1-dioxo-2,3-dihydro-1lambda6-thiophen-3-yl]-N-[(2-methoxypyridin-4-yl)methyl]-N′,N′-dimethylpropanediamide]
> 50	O=C(Cc1noc2ccccc12)N(Cc1ccncc1)C1C=CS(=O)(=O)C1 (stereo not drawn) [I-516, 2-(1,2-benzoxazol-3-yl)-N-(1,1-dioxo-2,3-dihydro-1lambda6-thiophen-3-yl)-N-[(pyridin-4-yl)methyl]acetamide]
> 50	O=C1Cc2ccc(CC(=O)N(Cc3ccncc3)C3C=CS(=O)(=O)C3)cc2N1 (stereo not drawn) [I-542, N-(1,1-dioxo-2,3-dihydro-1lambda6-thiophen-3-yl)-2-(2-oxo-2,3-dihydro-1H-indol-6-yl)-N-[(pyridin-4-yl)methyl]acetamide]
0.5 to 5	O=C(Cc1ccc(S(F)(F)(F)(F)F)cc1)N(Cc1cc(C2CC2)no1)C1C=CS(=O)(=O)C1 (stereo not drawn) [I-624, N-[(3-cyclopropyl-1,2-oxazol-5-yl)methyl]-N-(1,1-dioxo-2,3-dihydro-1lambda6-thiophen-3-yl)-2-[4-(pentafluoro-lambda6-sulfanyl)phenyl]acetamide]
0.5 to 5	COc1cc(CN(C(=O)C(O/C=C/S(C)(=O)=O)c2ccc(-c3ccc(F)c(F)c3)cc2F)[C@@H]2C=CS(=O)(=O)C2)ccn1 (stereo partly drawn) [I-793, N-[(3R)-1,1-dioxo-2,3-dihydro-1lambda6-thiophen-3-yl]-2-{[(1E)-2-methanesulfonylethenyl]oxy}-N-[(2-methoxypyridin-4-yl)methyl]-2-{3,3′,4′-trifluoro-[1,1′-biphenyl]-4-yl}acetamide]
> 50	O=C(C1CCc2cc(Br)ccc2O1)N(Cc1ccncc1)C1C=CS(=O)(=O)C1 (stereo not drawn) [I-678, 6-bromo-N-(1,1-dioxo-2,3-dihydro-1lambda6-thiophen-3-yl)-N-[(pyridin-4-yl)methyl]-3,4-dihydro-2H-1-benzopyran-2-carboxamide]
5 to 10	COc1cc(CN(C(=O)Cc2c(F)cc(-n3cccc3C)cc2F)C2C=CS(=O)(=O)C2)ccn1 (stereo not drawn) [I-241, 2-[2,6-difluoro-4-(2-methyl-1H-pyrrol-1-yl)phenyl]-N-(1,1-dioxo-2,3-dihydro-1lambda6-thiophen-3-yl)-N-[(2-methoxypyridin-4-yl)methyl]acetamide]
10 to 50	O=C(CCc1c[nH]c2cc(Br)ccc12)N(Cc1ccncc1)C1C=CS(=O)(=O)C1 (stereo not drawn) [I-304, 3-(6-bromo-1H-indol-3-yl)-N-(1,1-dioxo-2,3-dihydro-1lambda6-thiophen-3-yl)-N-[(pyridin-4-yl)methyl]propanamide]
0.5 to 5	COc1cc(CN(C(=O)C(OCCS(C)(=O)=O)c2ccc(-c3ccc(F)c(F)c3)cc2F)[C@@H]2C=CS(=O)(=O)C2)ccn1 (stereo partly drawn) [I-707, N-[(3R)-1,1-dioxo-2,3-dihydro-1lambda6-thiophen-3-yl]-2-(2-methanesulfonylethoxy)-N-[(2-methoxypyridin-4-yl)methyl]-2-{3,3′,4′-trifluoro-[1,1′-biphenyl]-4-yl}acetamide]
< 0.5	CC(C)(O)c1cc(CN(C(=O)C(c2ccc(-c3ccc(F)c(F)c3)cc2F)n2ccnn2)[C@@H]2C=CS(=O)(=O)C2)ccn1 (single isomer, unassigned) [I-800]
5 to 10	COc1cc(CN(C(=O)C(OC)c2ccc(C(F)(F)F)cc2)C2C=CS(=O)(=O)C2)ccn1 (stereo not drawn) [I-246, N-(1,1-dioxo-2,3-dihydro-1lambda6-thiophen-3-yl)-2-methoxy-N-[(2-methoxypyridin-4-yl)methyl]-2-[4-(trifluoromethyl)phenyl]acetamide]
5 to 10	COc1cc(CN(C(=O)C(c2ccc(-c3ccc(F)c(F)c3)cc2F)n2cccn2)[C@@H]2C=CS(=O)(=O)C2)ccn1 (single isomer, unassigned) [I-672, (2R*)-N-[(3R)-1,1-dioxo-2,3-dihydro-1lambda6-thiophen-3-yl]-N-[(2-methoxypyridin-4-yl)methyl]-2-(1H-pyrazol-1-yl)-2-{3,3′,4′-trifluoro-[1,1′-biphenyl]-4-yl}acetamide]
0.5 to 5	COc1cc(C(C)N(C(=O)Cn2cc(-c3cc(F)c(F)c(F)c3)cn2)C2C=CS(=O)(=O)C2)ccn1 (single isomer, unassigned) [I-828, N-[(3R**)-1,1-dioxo-2,3-dihydro-1lambda6-thiophen-3-yl]-N-[(1R*)-1-(2-methoxypyridin-4-yl)ethyl]-2-[4-(3,4,5-trifluorophenyl)-1H-pyrazol-1-yl]acetamide]
> 50	O=C(Cc1ccc(S(F)(F)(F)(F)F)cc1)N(Cc1nn[nH]n1)C1C=CS(=O)(=O)C1 (stereo not drawn) [I-757, N-(1,1-dioxo-2,3-dihydro-1lambda6-thiophen-3-yl)-2-[4-(pentafluoro-lambda6-sulfanyl)phenyl]-N-[(2H-1,2,3,4-tetrazol-5-yl)methyl]acetamide]
0.5 to 5	COc1cc(CN(C(=O)C(c2ccc(-c3ccc(F)c(F)c3)cc2F)n2cc(C#N)cn2)[C@@H]2C=CS(=O)(=O)C2)ccn1 (single isomer, unassigned) [I-712, (2R*)-2-(4-cyano-1H-pyrazol-1-yl)-N-[(3R)-1,1-dioxo-2,3-dihydro-1lambda6-thiophen-3-yl]-N-[(2-methoxypyridin-4-yl)methyl]-2-{3,3′,4′-trifluoro-[1,1′-biphenyl]-4-yl}acetamide]
< 0.5	COc1cc(CN(C(=O)Cc2ccc(S(F)(F)(F)(F)F)cc2)[C@@H]2C=CS(=O)(=O)C2)ccn1 [I-17, N-[(3R)-1,1-dioxo-2,3-dihydro-1lambda6-thiophen-3-yl]-N-[(2-methoxypyridin-4-yl)methyl]-2-[4-(pentafluoro-lambda6-sulfanyl)phenyl]acetamide]
> 50	O=C(CCc1cc2ccccc2[nH]1)N(Cc1ccncc1)C1C=CS(=O)(=O)C1 (stereo not drawn) [I-396, N-(1,1-dioxo-2,3-dihydro-1lambda6-thiophen-3-yl)-3-(1H-indol-2-yl)-N-[(pyridin-4-yl)methyl]propanamide]
> 50	CNC(=O)CC(C(=O)N(Cc1ccncc1)C1C=CS(=O)(=O)C1)c1ccc(-c2ccc(F)cc2)cc1 (stereo not drawn) [I-562, N-(1,1-dioxo-2,3-dihydro-1lambda6-thiophen-3-yl)-2-{4′-fluoro-[1,1′-biphenyl]-4-yl}-N′-methyl-N-[(pyridin-4-yl)methyl]butanediamide]
> 50	O=C(Cc1ccc(-n2cccc2)cc1)N(Cc1ccccc1)C1C=C(CO)S(=O)(=O)C1 (stereo not drawn) [I-373, N-benzyl-N-[5-(hydroxymethyl)-1,1-dioxo-2,3-dihydro-1lambda6-thiophen-3-yl]-2-[4-(1H-pyrrol-1-yl)phenyl]acetamide]
0.5 to 5	COC(C(=O)N(Cc1ccnc(C(C)(C)O)c1)C1C=CS(=O)(=O)C1)c1ccc(C(F)(F)F)cc1 (stereo not drawn) [I-209, N-(1,1-dioxo-2,3-dihydro-1lambda6-thiophen-3-yl)-N-{[2-(2-hydroxypropan-2-yl)pyridin-4-yl]methyl}-2-methoxy-2-[4-(trifluoromethyl)phenyl]acetamide]
< 0.5	COc1cc(CN(C(=O)[C@H](C(=O)N(C)C)c2ccc(-c3ccc(F)cc3)cc2F)[C@@H]2C=CS(=O)(=O)C2)ccn1 [I-9, (2S)-2-{3,4′-difluoro-[1,1′-biphenyl]-4-yl}-N-[(3R)-1,1-dioxo-2,3-dihydro-1lambda6-thiophen-3-yl]-N-[(2-methoxypyridin-4-yl)methyl]-N′,N′-dimethylpropanediamide]
< 0.5	CNC(=O)C(C(=O)N(Cc1ccnc(C(C)(C)O)c1)C1C=CS(=O)(=O)C1)c1ccc(-c2ccc(F)c(F)c2)cc1F (single isomer, unassigned) [I-689, (2R**)-N′-[(3R*)-1,1-dioxo-2,3-dihydro-1lambda6-thiophen-3-yl]-N′-{[2-(2-hydroxypropan-2-yl)pyridin-4-yl]methyl}-N-methyl-2-{3,3′,4′-trifluoro-[1,1′-biphenyl]-4-yl}propanediamide]
< 0.5	O=C(Cc1ccc(S(F)(F)(F)(F)F)cc1)N(Cc1nc(-c2nn[nH]n2)cs1)C1C=CS(=O)(=O)C1 (stereo not drawn) [I-626, N-(1,1-dioxo-2,3-dihydro-1lambda6-thiophen-3-yl)-2-[4-(pentafluoro-lambda6-sulfanyl)phenyl]-N-{[4-(2H-1,2,3,4-tetrazol-5-yl)-1,3-thiazol-2-yl]methyl}acetamide]
0.5 to 5	Cc1cccn1-c1ccc(CC(=O)N(Cc2ccnc3c2CCO3)C2C=CS(=O)(=O)C2)c(F)c1 (stereo not drawn) [I-179, N-(1,1-dioxo-2,3-dihydro-1lambda6-thiophen-3-yl)-2-[2-fluoro-4-(2-methyl-1H-pyrrol-1-yl)phenyl]-N-({2H,3H-furo[2,3-b]pyridin-4-yl}methyl)acetamide]
> 50	O=C(CCc1cc2ccccc2s1)N(Cc1ccncc1)C1C=CS(=O)(=O)C1 (stereo not drawn) [I-495, 3-(1-benzothiophen-2-yl)-N-(1,1-dioxo-2,3-dihydro-1lambda6-thiophen-3-yl)-N-[(pyridin-4-yl)methyl]propanamide]
> 50	COc1cc(CN(C(=O)C2CN(C)c3cc(-c4ccc(F)cc4)ccc32)C2C=CS(=O)(=O)C2)ccn1 (stereo not drawn) [I-385, N-(1,1-dioxo-2,3-dihydro-1lambda6-thiophen-3-yl)-6-(4-fluorophenyl)-N-[(2-methoxypyridin-4-yl)methyl]-1-methyl-2,3-dihydro-1H-indole-3-carboxamide]
